Values joined by “and” are separate entries in the source; they are usually repeats but may differ in a detail not shown here. Identical values can stand only once. Active and inactive are the calls of the source.
Legend:
[1] = target: T1, Mannose-6-phosphate isomerase (Homo sapiens, UniProt P34949); assay: phosphomannose isomerase inhibition – biochemical, fluorescence intensity, confirmation (AID 1535)
T1 sequence (P34949 whole entry): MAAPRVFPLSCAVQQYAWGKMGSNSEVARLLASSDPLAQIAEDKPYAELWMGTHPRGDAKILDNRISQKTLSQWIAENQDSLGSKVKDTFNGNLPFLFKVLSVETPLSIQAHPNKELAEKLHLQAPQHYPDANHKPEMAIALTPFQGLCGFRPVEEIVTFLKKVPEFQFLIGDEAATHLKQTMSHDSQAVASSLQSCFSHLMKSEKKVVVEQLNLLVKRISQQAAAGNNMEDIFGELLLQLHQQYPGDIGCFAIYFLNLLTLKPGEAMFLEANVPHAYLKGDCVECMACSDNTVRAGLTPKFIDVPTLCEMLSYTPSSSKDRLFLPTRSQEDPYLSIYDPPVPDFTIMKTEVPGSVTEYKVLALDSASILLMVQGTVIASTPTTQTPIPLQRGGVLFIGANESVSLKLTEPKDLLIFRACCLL

Phosphomannomutase 2 = target: T2, Phosphomannomutase 2 (Homo sapiens, UniProt O15305); assay: Counter screen SAR assay for PMM2 inhibitors via a fluorescence intensity assay. [Related pubchem assays (depositor defined):AID1545, AID1574]
T2 sequence (O15305 whole entry): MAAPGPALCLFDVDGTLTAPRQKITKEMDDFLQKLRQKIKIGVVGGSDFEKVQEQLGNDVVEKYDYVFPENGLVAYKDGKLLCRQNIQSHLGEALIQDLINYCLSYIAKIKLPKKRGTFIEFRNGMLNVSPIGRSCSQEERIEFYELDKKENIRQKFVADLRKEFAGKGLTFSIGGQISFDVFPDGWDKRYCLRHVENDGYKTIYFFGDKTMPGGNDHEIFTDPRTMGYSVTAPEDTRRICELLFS

Coagulation factor XII = target: T3, Coagulation factor XII (Homo sapiens, UniProt P00748); type: functional;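 also: activated factor XIIa alpha cleaving a fluorogenic AMC peptide substrate; inhibitor potency from loss of enzyme activity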
T3 sequence (P00748 whole entry): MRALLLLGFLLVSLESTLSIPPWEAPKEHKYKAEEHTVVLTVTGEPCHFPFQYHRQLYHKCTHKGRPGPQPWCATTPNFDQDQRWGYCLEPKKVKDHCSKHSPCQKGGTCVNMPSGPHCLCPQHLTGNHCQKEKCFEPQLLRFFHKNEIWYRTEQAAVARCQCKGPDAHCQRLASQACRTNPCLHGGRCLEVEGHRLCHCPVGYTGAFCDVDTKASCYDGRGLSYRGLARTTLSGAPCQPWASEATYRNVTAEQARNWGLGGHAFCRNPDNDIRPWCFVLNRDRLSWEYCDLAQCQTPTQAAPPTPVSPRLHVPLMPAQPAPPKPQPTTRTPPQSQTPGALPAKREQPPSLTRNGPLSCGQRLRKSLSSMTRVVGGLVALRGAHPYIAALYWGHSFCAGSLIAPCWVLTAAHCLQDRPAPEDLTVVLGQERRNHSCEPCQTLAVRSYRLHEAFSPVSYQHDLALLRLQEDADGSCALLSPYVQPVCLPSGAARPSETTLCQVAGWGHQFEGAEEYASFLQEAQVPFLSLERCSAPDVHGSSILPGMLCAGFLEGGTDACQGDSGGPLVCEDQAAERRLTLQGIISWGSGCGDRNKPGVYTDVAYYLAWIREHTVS

Cytochrome P450 3A4 = Cytochrome P450 3A4 (Homo sapiens, UniProt P08684); details: Potency;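 also: confirmatory qHTS run detecting inhibitors and substrates of CYP3A4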
[2] = THP-1 cell cytotoxicity, dose response, cytotoxicity control for non-replicating M. tuberculosis project (AID 489025); type: functional
cells = type: functional
Hexokinase = target: T4, Hexokinase (Trypanosoma brucei, UniProt Q38C41); assay: Confirmation assay for inhibitors of Trypanosoma brucei hexokinase 1-Analogue-first series. [Related pubchem assays (depositor defined):AID1430, AID1632, AID2516, AID2560, AID2579, AID2600, AID449725, AID492951]; type: functional
T4 sequence (Q38C41 whole entry): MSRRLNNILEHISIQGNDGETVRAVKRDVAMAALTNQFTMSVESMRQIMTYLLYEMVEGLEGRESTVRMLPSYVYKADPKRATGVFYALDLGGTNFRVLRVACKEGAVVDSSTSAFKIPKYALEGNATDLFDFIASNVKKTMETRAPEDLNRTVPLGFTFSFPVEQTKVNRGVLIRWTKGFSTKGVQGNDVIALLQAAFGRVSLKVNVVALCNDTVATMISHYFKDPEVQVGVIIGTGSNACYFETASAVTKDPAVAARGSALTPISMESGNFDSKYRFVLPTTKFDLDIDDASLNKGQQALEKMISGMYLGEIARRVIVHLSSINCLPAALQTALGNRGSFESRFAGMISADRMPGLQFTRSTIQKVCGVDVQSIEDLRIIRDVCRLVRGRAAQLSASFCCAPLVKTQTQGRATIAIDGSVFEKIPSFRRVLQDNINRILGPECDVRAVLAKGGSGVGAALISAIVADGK

Aminopeptidase N = target: T5, Aminopeptidase N (Plasmodium falciparum FcB1/Columbia, UniProt O96935); assay: malaria alanyl aminopeptidase activity blockers – biochemical, fluorogenic H-Leu-NHMec substrate, 1536-well (AID 1445); set-up: species or system Plasmodium falciparum 3D7, 3D7
T5 sequence (O96935 whole entry): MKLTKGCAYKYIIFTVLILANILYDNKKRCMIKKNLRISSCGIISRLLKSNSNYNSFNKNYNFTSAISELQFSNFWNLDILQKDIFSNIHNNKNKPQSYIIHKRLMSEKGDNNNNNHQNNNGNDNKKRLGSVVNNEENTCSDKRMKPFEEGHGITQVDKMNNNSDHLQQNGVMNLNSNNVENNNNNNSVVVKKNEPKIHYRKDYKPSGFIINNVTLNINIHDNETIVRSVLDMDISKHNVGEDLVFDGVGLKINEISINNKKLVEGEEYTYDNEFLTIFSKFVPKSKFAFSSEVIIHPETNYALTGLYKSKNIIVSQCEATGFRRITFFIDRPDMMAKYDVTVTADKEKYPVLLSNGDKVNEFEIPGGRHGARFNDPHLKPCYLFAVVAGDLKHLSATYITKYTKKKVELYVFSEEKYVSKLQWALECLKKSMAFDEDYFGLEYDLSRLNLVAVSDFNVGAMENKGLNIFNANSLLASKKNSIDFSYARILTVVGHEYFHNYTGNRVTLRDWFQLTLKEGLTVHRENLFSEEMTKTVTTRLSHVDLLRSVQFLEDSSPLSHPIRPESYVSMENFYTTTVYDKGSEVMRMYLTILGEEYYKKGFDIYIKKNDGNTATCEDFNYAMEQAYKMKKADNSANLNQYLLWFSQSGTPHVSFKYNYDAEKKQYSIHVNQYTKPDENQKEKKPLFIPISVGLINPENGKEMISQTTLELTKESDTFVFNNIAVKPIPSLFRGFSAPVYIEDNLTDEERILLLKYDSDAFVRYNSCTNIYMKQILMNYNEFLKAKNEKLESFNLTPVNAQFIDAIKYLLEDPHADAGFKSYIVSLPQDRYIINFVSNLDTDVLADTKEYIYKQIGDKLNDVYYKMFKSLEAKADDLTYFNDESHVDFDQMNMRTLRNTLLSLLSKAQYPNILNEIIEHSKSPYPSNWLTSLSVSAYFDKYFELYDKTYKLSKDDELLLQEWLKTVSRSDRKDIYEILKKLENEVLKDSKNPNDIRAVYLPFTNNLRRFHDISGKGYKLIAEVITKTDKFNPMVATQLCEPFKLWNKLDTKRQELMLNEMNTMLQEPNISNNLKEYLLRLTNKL

Large T antigen = Large T antigen (Simian virus 40, UniProt P03070); type: functional, Betapolyomavirus macacae;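 also: Confirmatory-stage PubChem screen for compounds that inhibit SV40 T antigen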
Troponin, cardiac muscle = Troponin, cardiac muscle (Homo sapiens, UniProt P19429+P45379+P63316); assay: Fluorescence-based biochemical high throughput dose response assay for activators of the calcium sensitivity of cardiac Regulated Thin Filaments (RTF). [Related pubchem assays (depositor defined):AID493008, AID493018, AID504382, AID504383]; type: protein-complex assay
[3] = target: Glucose-6-phosphate 1-dehydrogenase (Homo sapiens, UniProt P11413); assay: inhibition of Homo sapiens G6PD, dose series – biochemical, fluorescence, selectivity assay for P. falciparum G6PD inhibitor project, dose response (AID 504792); type: functional
[4] = HEK-293T cell viability reduction – luminescence, B-cell screen hits, cytotoxicity control for BCR NF-kB inhibitor project, dose response (AID 489021); type: functional, cell-based;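 also: HEK-293T cells carrying an NF-kB luciferase reporter; cells exposed to compound for about 14 hours before viability readout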
[5] = target: T6, Voltage-gated N-type calcium channel alpha-1B subunit/Amyloid beta A4 precursor protein-binding family A member 1 (Homo sapiens, UniProt Q00975+Q02410); type: protein assay
[6] = target: T6, Voltage-gated N-type calcium channel alpha-1B subunit/Amyloid beta A4 precursor protein-binding family A member 1; type: protein assay; remark: listed apart in the source
[7] = target: DNA dC->dU-editing enzyme APOBEC-3A (Homo sapiens, UniProt P31941); assay: Dose Response confirmation of small molecule APOBEC3A DNA Deaminase Inhibitors via a fluorescence-based single-stranded DNA deaminase assay. [Related pubchem assays (depositor defined):AID493011, AID493024]; type: functional
[8] = target: DNA dC->dU-editing enzyme APOBEC-3G (Homo sapiens, UniProt Q9HC16); type: functional;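 also: Dose-response counterscreen measuring inhibition of APOBEC3G DNA deaminase activity, run while confirming APOBEC3A inhibitors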
[9] = target: Alkaline phosphatase, placental type (Homo sapiens, UniProt P05187); assay: human placental alkaline phosphatase inhibition – biochemical, luminescence, confirmation (AID 1512); type: functional
[10] = target: T7, Alkaline phosphatase, tissue-nonspecific isozyme (Homo sapiens, UniProt P05186); assay: potency against alkaline phosphatase TNAP – biochemical, luminescent, dose response, SAR follow-up (AID 1056)
T7 sequence (P05186 whole entry): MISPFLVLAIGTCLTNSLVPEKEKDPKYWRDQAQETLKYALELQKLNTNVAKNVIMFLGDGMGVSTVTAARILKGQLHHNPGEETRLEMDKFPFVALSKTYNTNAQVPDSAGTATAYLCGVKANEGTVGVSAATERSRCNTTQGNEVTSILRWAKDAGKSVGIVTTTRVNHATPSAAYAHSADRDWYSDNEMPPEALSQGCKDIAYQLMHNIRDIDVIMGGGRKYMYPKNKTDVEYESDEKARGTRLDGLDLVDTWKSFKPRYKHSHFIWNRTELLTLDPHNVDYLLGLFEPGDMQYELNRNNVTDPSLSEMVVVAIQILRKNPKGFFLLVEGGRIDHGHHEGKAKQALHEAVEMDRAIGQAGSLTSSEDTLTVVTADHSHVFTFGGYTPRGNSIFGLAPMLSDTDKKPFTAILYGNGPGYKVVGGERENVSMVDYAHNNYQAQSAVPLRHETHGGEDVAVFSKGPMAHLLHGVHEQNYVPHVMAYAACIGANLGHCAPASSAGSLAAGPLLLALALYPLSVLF

T6 sequence (Q00975 whole entry): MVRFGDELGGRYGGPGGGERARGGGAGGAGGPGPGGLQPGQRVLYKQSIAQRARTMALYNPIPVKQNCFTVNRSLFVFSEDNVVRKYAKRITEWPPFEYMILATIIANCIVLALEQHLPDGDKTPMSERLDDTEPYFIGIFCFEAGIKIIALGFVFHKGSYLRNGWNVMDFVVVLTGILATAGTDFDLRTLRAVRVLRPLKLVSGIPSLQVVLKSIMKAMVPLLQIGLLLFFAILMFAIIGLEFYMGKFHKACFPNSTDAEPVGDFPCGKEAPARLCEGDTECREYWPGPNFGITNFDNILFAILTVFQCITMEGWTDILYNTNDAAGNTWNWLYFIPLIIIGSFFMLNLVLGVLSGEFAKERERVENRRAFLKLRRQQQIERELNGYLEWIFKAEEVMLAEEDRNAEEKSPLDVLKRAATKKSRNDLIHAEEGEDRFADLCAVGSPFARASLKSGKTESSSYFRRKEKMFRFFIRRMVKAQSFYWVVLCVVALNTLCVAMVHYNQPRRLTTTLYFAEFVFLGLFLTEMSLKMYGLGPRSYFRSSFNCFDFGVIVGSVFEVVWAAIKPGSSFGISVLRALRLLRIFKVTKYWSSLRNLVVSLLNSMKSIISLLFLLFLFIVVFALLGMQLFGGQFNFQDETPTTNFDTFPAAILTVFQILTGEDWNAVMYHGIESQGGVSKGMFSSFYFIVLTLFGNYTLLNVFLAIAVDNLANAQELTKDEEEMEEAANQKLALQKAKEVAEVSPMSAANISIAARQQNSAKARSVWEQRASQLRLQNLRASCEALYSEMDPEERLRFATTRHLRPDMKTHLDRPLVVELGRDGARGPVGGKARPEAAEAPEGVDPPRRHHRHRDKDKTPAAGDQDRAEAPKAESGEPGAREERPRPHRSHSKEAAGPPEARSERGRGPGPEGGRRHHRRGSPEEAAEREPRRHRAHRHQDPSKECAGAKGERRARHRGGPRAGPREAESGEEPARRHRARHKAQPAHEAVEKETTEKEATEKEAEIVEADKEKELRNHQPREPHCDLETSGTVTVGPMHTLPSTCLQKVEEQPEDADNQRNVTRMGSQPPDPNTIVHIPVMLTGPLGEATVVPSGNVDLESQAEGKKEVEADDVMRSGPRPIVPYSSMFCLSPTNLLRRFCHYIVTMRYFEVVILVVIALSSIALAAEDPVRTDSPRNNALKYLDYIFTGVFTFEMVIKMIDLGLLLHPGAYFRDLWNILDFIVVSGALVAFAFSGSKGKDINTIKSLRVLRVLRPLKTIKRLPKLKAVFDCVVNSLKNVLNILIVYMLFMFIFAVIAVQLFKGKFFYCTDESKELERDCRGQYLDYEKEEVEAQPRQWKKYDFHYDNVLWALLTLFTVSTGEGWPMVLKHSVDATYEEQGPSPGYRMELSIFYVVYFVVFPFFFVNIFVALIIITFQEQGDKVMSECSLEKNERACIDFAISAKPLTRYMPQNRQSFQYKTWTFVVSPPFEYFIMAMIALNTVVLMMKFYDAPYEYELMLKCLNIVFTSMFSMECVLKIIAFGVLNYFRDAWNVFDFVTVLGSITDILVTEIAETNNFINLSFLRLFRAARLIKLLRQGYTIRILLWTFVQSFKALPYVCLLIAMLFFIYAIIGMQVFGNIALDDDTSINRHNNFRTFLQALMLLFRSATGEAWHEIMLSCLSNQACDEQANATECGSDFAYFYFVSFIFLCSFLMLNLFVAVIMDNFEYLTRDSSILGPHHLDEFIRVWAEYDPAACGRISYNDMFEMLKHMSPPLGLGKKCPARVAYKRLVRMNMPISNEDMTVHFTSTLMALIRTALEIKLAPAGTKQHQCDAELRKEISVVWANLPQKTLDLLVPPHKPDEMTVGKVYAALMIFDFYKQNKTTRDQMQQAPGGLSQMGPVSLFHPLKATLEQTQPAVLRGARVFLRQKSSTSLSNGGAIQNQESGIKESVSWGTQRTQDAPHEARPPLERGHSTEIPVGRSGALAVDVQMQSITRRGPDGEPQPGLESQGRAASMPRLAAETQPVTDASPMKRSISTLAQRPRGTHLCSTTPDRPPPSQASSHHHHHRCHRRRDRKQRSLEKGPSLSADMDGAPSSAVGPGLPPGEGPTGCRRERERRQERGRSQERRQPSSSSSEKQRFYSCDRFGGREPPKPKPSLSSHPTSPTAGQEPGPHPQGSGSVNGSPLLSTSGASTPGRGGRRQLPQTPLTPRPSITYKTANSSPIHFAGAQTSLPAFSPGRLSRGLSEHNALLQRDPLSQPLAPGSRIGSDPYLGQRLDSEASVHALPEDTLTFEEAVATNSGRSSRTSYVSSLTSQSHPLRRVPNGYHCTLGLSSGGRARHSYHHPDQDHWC
T6 sequence (Q02410 whole entry): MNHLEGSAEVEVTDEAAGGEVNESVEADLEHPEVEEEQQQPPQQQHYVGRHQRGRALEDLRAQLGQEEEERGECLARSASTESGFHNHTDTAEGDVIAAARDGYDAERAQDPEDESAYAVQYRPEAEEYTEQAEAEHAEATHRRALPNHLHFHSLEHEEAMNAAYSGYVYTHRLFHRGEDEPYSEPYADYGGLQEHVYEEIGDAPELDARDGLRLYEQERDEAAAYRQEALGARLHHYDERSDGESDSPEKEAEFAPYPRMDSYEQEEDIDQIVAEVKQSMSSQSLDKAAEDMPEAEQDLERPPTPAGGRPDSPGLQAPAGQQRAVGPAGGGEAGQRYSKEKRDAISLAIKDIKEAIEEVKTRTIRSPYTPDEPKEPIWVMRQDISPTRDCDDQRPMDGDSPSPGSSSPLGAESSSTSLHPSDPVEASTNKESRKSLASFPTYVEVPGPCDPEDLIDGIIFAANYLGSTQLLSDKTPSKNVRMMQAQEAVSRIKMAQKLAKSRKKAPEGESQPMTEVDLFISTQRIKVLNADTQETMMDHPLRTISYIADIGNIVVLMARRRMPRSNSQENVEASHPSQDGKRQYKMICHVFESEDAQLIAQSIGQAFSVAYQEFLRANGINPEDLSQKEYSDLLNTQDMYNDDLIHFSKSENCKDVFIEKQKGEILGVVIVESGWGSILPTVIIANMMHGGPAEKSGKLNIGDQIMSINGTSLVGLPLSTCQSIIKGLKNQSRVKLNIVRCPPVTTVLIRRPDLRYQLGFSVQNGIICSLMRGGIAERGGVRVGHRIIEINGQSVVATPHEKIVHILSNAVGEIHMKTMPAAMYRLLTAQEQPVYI
Cytochrome P450 3A4, sequence (P08684 whole entry): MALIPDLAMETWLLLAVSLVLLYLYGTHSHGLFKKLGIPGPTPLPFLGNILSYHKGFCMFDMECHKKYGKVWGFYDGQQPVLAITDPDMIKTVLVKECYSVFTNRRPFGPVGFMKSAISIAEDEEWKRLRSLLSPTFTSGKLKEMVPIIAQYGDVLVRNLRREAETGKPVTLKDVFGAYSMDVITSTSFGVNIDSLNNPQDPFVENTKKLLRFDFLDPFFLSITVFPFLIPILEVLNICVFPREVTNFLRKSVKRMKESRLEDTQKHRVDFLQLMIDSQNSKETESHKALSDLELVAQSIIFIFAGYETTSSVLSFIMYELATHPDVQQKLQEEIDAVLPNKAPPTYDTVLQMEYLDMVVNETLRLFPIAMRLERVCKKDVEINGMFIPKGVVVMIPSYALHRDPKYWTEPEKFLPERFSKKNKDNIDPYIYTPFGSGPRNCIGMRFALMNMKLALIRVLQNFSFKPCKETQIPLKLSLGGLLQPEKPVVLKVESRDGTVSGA
Alkaline phosphatase, placental type, sequence (P05187 whole entry): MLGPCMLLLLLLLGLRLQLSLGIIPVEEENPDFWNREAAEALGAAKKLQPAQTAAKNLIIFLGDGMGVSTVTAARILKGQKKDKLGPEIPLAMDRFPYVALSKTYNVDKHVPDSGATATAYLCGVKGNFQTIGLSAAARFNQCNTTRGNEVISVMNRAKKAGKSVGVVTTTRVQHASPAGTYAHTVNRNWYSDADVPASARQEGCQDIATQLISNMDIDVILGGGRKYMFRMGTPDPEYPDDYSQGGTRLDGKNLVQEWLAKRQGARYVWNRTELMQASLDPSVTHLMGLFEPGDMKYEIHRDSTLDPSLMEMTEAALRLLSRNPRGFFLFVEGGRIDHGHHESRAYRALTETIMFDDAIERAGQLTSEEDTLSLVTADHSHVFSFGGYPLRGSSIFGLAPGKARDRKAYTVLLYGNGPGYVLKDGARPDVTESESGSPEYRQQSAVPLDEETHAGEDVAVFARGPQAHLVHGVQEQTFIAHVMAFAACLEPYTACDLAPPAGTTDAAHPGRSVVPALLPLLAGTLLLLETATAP
Glucose-6-phosphate 1-dehydrogenase, sequence (P11413 whole entry): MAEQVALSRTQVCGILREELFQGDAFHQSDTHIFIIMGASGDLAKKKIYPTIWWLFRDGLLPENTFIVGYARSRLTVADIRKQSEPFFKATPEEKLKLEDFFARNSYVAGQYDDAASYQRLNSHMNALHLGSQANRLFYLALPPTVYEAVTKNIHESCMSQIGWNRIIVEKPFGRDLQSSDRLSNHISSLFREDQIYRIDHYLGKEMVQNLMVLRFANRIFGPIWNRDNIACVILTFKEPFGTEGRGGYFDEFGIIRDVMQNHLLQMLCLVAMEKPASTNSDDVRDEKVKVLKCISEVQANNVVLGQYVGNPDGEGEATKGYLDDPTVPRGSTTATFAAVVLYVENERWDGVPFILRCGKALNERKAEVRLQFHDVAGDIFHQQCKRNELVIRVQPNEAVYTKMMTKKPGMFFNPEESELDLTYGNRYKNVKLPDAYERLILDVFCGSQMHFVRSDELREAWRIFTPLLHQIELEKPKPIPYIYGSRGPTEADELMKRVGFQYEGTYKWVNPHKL
DNA dC->dU-editing enzyme APOBEC-3A, sequence (P31941 whole entry): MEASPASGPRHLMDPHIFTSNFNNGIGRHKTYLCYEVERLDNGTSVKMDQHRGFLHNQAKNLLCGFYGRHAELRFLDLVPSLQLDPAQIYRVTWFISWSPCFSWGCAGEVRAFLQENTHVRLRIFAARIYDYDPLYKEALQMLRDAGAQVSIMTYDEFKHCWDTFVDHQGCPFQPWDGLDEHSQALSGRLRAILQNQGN

Cc1cc2n(n1)SC(Nc1cc(Cl)ccc1Cl)N2 (configuration not stated)
IC50 [1]: > 50 µM (inactive) | IC50 (Phosphomannomutase 2): > 100 µM (inactive)

O=S(=O)(c1ccc(S(=O)(=O)N2CCCC2)cc1)N1CCCCCC1
IC50 (Coagulation factor XII): > 50 µM (inactive)

O=c1c2ccccc2sn1-c1ncc([N+](=O)[O-])s1
IC50 [1]: 22.7 µM (active) | IC50 (Phosphomannomutase 2): > 100 µM (inactive)

C#CCCCCCCCCCCCC(O)CC(O)CO (configuration not stated) [AVOCADYNE]
AC50 (Cytochrome P450 3A4): 39.8 µM (inconclusive)

O=C(OCC(=O)N1CCN(c2ccccc2)CC1)c1cnc(Cl)c(Cl)c1
CC50 [2]: 34.2 µM (active) | IC50 (cells): 3.69 µM (active)

COc1ccc(N2C(=O)CC(Nc3cccc([N+](=O)[O-])c3)C2=O)cc1 (configuration not stated)
IC50 (Coagulation factor XII): > 50 µM (inactive)

COc1ccc(C(=O)Nc2cc(Cl)ccc2C#N)cc1
IC50 (Hexokinase): > 25 µM (inactive)

N=C1/C(=C\c2coc3ccc(O)cc3c2=O)C(=O)N=C2SC=CN12
IC50 (Aminopeptidase N): 57.6 µM (active) | IC50 (Large T antigen): 15.8 µM (active)

O=C(O)c1cc(NCc2ccc(F)cc2)ccc1N1CCOCC1
EC50 (Troponin, cardiac muscle): > 71.5 µM (inactive)

COc1cc(C(=O)O/N=C2\C=CC(=O)C=C2C)cc(OC)c1OC
IC50 [3]: > 80 µM (inactive) | IC50 (Coagulation factor XII): 10.3 µM (active)

COc1ccc(N2C(=O)c3ccc(Cl)cc3C2=O)cc1
IC50 (Hexokinase): > 25 µM (inactive)

CCOC(=O)c1cc(-c2cccc([N+](=O)[O-])c2)nc2[nH]c(=O)[nH]c(=O)c12
IC50 (Aminopeptidase N): 7.44 µM (active)

CC(C)C[C@@H](N)c1nnc(SCC(=O)c2ccc(Cl)cc2)o1
IC50 [4]: > 80 µM (inactive)

Cn1c(=O)cc(OCCCC(=O)N2CCCCC2)c2ccccc21
IC50 [4]: > 80 µM (inactive)

CC(=O)Nc1ccc(OC(=O)c2cc3cc(Br)ccc3oc2=O)cc1
IC50 [5]: 2 µM (active) | IC50 [6]: > 50 µM (inactive)

O=c1cc(-c2ccccc2)oc2cccc(O)c12 [5-HYDROXYFLAVONE]
AC50 (Cytochrome P450 3A4): 6.31 µM (inconclusive) and 20 µM (inconclusive)

CCC(=O)OCC(=O)C1(OC(=O)CC)C(C)CC2C3CCC4=CC(=O)C=CC4(C)C3(Cl)C(O)CC21C (configuration not stated)
AC50 (Cytochrome P450 3A4): 12.6 µM (inconclusive)

O=c1c2ccccc2sn1-c1ccccc1Cl
IC50 (Hexokinase): 1.97 µM (active)

CCCCc1cc(=O)oc2c(CN(C)C)c(O)c(Cl)cc12
IC50 (Aminopeptidase N): 27.3 µM (active)

CC1(C)CC(=O)C=C(Nc2ccccc2N)C1
EC50 (Troponin, cardiac muscle): > 71.5 µM (inactive)

N#Cc1cccc(NC(=O)C[n+]2c3n(c4ccc(C(F)(F)F)cc42)CCCCC3)c1
IC50 [7]: 1.97 µM (active) | IC50 [8]: 2.75 µM (active)

CN1C(=O)C(=C/C=C/Nc2ccccc2)C(=O)N(C)C1=S
IC50 [5]: 6.18 µM (active) | IC50 [6]: > 50 µM (inactive)

Cc1ccc(-c2nnc(SCC(=O)c3ccc(O)c(O)c3)n2-c2ccccc2)cc1
IC50 [9]: > 100 µM (inactive) | IC50 [10]: > 100 µM (inactive)

From ChEMBL document CHEMBL1201862, “PubChem BioAssay data set” (2004)
